# Reference: publication PMC7708037, “Targeting OGG1 arrests cancer cell proliferation by inducing replication stress” (Nucleic Acids Research, 2020)
# Columns and labels:
# Assay type in all cases: cell-based, human
# ACHN = test: Colony formation assay; details: 6–11 days, Figure 3D
# Experimental: (§1) The indicated concentrations TH5487 were spotted in 6-well plates using a Tecan D300e digital dispenser. 200–500 cells/well H460, ACHN, Ogg1^−/− mouse embryonic fibroblasts and MRC5 cells were then seeded at 200–500 cells/well and incubated for 7–11 days. Colonies exceeding 50 cells were fixed, stained and enumerated as above.
# (§2) Figure 3. The OGG1 inhibitor TH5487 is selectively toxic to oncogene-expressing cells and cancer cell lines. (A) Close-up view of ligand TH5487 (green) binding to human OGG1. Important residues in the binding site are marked, hydrogen bond interactions are shown in black dashed line, water (red sphere)-mediated interactions in grey dashed line. (B) Comparison between the binding of ligand TH5487 (green) to human OGG1 (gray) with the structure of TH5675 (pink) bound to mouse OGG1 (yellow, PDB 6G3Y). (C) Viability of BJ-Tert and BJ-Ras cells exposed to the indicated concentrations TH5487 for five days. Data are average ±SD of four technical replicates from two independent experiments. (D) Clonogenic survival of cell lines exposed to TH5487. The cancer cell lines ACHN and H460, and the non-transformed cell lines MRC5 and Ogg1^−/− mouse embryonic fibroblasts (MEF) were incubated for 6–11 days in the presence of the indicated concentrations TH5487, followed by colony enumeration. Data are average ±SD values of four technical replicates, representative of three independent experiments. (E) TH5487 selectively decreases viability of cancer cell lines. EC50-values of 34 cancer (red) and 7 non-transformed cell lines (blue). Cells were exposed to a dilution series of TH5487 for five days followed by a viability assessment using resazurin. All cell lines were tested in two to ten independent experiments. Each point represents the EC50-value from one experiment (average of two or three technical replicates). (F) Comparative analysis of EC50 values for TH5487 in cancer- and non-transformed cell lines, and CD34+ hematopoietic stem cells, CD34- fraction from cord blood or PBMCs from healthy donor blood. […]
# H460 = test: Colony formation assay; details: H460, 6–11 days, Figure 3D
# Experimental: as §1, §2
# MRC5 = test: Colony formation assay; details: MRC5, up to 20 μM
# Experimental: as §1, §2
# A3 cells = test: Cell cycle distribution by flow cytometry; details: 10 μM
# Experimental: At the indicated time points, compound/dox treated cells were incubated in medium containing 10 μM 5-ethynyl-2′-deoxyuridine (EdU) (Thermo Fisher, A10044) for 20 min. Next, cells were fixed in cold 70% ethanol overnight. The azide alkyne Huisgen cycloaddition (‘Click reaction’) was carried out according to the Click-iT EdU Imaging Manual (Thermo Fisher) using various fluorescent dyes: Alexa Fluor® 488 azide (Thermo Fisher, A10266), Alexa Fluor® 647 azide (Thermo Fisher, A10277), or TAMRA azide (Thermo Fisher, T10182), depending on assay conditions. […] Data was analyzed using Kaluza® Flow Analysis Software (Beckman Coulter). […]
# untreated parental HEK293T. […] Statistical significance was determined using Mann Witney test (**, P<0.01, ***, P<0.001 and ****, P<0.0001 , ns, non-significant).
# Supplementary Fig. S6: 8 -oxodG levels and cell cycle distribution. […] The indicated shNT cells were treated with 250 ng/ml doxycycline for 0, 96, or 144 h, and the amount of genomic 8-oxodG was quantified with LC -MS/MS. […] Cells were treated with 10 µM TH5487 or an equivalent volume DMSO for the indicated times, and the cell cycle distribution was determined by flow cytometry. […] A3 shNT (grey), sh2 (blue), and sh3 (red), were treated with 250 ng/ml doxycycline for 48 –120 h, and the cell cycle distribution was determined with flow cytometry. […]
structure (smiles),measurement,setting,value
O=C(Nc1ccc(I)cc1)N1CCC(n2c(=O)[nH]c3c(Br)cccc32)CC1 [TH5487],Clonogenic potential,ACHN,concentration-dependent loss of clonogenic potential
same,Clonogenic potential,H460,concentration-dependent loss of clonogenic potential
same,Clonogenic potential,MRC5,unaffected
same,Cell cycle distribution,A3 cells,remained largely constant
same,Sub-G1 population,A3 cells,accumulation in the sub-G1 population
